Measured values from patent publication US20230357363A1, “PROTEIN DOUBLE-SHELL NANOSTRUCTURES AND THEIR USE” (The Board of Trustees of the Leland Stanford Junior …, priority 2020, published 2023).

Test system: BODIPY-conjugated pKID domain of CREB protein
Test: Fluorescence polarization assay of MBP-KIX-apoferritin with BODIPY-conjugated pKID
Type: binding
Details: FP assay, protein titrated against BODIPY-pKID, read 30 minutes after mixing
Description: FIGS. 1A-1D. The design of double-shell system. FIG. 1A. The double shell system is shown by cartoon with apoferritin as inner cage, MBP as outer cage, and small cargo proteins in the middle portion. FIG. 1B. Strategy of plasmid construction. The cargo protein KIX C-terminus is fused to the apoferritin N-terminus with the C-terminal 668-672 residues of KIX and N-terminal 1-5 residues of apoferritin truncated for stability. Several mutations (shown as lightning) were also incorporated on the interface between KIX and apoferritin to enhance stability. The MBP tag is fused to the KIX N-terminus. FIG. 1C. Design of mutations that stabilize the KIX domain of CBP on the apoferritin complex. […] Fluorescence polarization assay using the BODIPY-conjugated phosphorylated KID domain of CREB and KIX, MBP-KIX-apoferritin construct 3, or MBP-apoferritin. […]
Fluorescence polarization (FP) using the MBP-KIX-apoferritin and the BODIPY-conjugated phosphorylated pKID domain of CREB was performed as described previously^16. […] Phosphorylation efficiency of pKID, which was assessed using a SDS-gel containing Phos-tag™ Acrylamide (FUJIFILM), was almost 100%. pKID was purified using the phosphoprotein enrichment kit (Takara). […] Molar concentration of KIX, MBP-KIX-apoferritin construct 3, and MBP-apoferritin was calculated as a monomer. FP was measured 30 minutes after mixing using INFINITE M1000 PRO (TECAN). […]

binding affinity of KIX for the BODIPY-conjugated pKID domain of CREB (function of KIX in the 24-mer complex): still maintained its function
Substance: MKF: 24-mer MBP-KIX-apoferritin fusion protein double-shell nanostructure from construct 3 (T27C, A31C, E169C, C177S, E237C)
